Drawing on PubChem BioAssay AID602275 (The Scripps Research Institute Molecular Screening Center, 2012), this text covers IC50 and outcome for 28 compounds.

In one assay the target is NS3h 2a[JFH1]. The assay can be described thus: NS3h unwinding inhibitors, genotype 1b and 2a – biochemical, real-time fluorescence, strains con1 and JFH1, set 3, selectivity assay for HCV NS3 helicase inhibitor project, late-stage follow-up (AID 602275). Conditions: Recombinant NS3h.
The next assay has as its target NS3h 1b[con1]. The assay is described as above. Conditions: Recombinant NS3h.

Where “and” joins values, the source holds several entries; their conditions need not be identical. Equal entries are not always repeated. Calls of active or inactive are those of the source. How the calls were made is not given here.

Regarding `NS(=O)(=O)c1ccc2nc(NC(=O)c3ccc4ncsc4c3)sc2c1`, the half-inhibitory concentration (IC50) was 6 µM and 15.7 µM on NS3h 2a[JFH1]; 37.9 µM and 40.5 µM on NS3h 1b[con1].
Turning to `Cc1ccc2nc(-c3ccc(NC(=S)Nc4ccccc4Br)cc3)sc2c1`, the IC50 entry on NS3h 2a[JFH1] is “inactive”. In addition, on NS3h 1b[con1], the outcome was inactive.
For `Cc1ccc2nc(-c3ccc4nc(-c5ccc(NC(=O)c6ccccc6C(F)(F)F)cc5)sc4c3)sc2c1S(=O)(=O)O`, the IC50 on NS3h 2a[JFH1] was 24.3 µM; on NS3h 1b[con1], 14.1 µM.
On the same counts, the results for `Cc1ccc(C(=O)Nc2ccc(-c3nc4ccc(-c5nc6ccc(C)c(S(=O)(=O)O)c6s5)cc4s3)cc2)cc1` are 2.5 µM and 3.3 µM.
On the same counts, the results for `Cc1ccc2nc(-c3ccc4nc(-c5ccc(NC(=O)c6ccc(C(C)(C)C)cc6)cc5)sc4c3)sc2c1S(=O)(=O)O` are 5 µM and 8.2 µM.
On the same counts, the results for `Cc1ccc2nc(-c3ccc(NC(=O)c4ccc(NC(=O)c5ccccc5)cc4)cc3)sc2c1S(=O)(=O)O` are “inactive” and “inactive”.
As for `Cc1ccc2nc(-c3ccc(NC(=O)c4ccc(NC(=S)Nc5ccccc5)cc4)cc3)sc2c1S(=O)(=O)O`, the half-inhibitory concentration (IC50) on NS3h 2a[JFH1] was 28.7 µM; at NS3h 1b[con1], 28.8 µM.
For `Cc1ccc2nc(-c3ccc4nc(-c5ccc(NC(=O)c6cccnc6)cc5)sc4c3)sc2c1S(=O)(=O)O`, the IC50 on NS3h 2a[JFH1] is 28.3 µM.
Take `Cc1ccc2nc(-c3ccc4nc(-c5ccc(NC(=S)Nc6ccccc6)cc5)sc4c3)sc2c1S(=O)(=O)O`: the IC50 at NS3h 2a[JFH1] was 9.6 µM; at NS3h 1b[con1], 9.3 µM.
On the same counts, the results for `Cc1ccc2nc(-c3ccc4nc(-c5ccc(NS(=O)(=O)c6ccc(C(F)(F)F)cc6)cc5)sc4c3)sc2c1S(=O)(=O)O` are 35 µM and 32 µM.
As to `Cc1ccc2nc(-c3ccc4nc(-c5ccc(NC(=O)c6cccc(C(F)(F)F)c6)cc5)sc4c3)sc2c1S(=O)(=O)O`, the IC50 at NS3h 2a[JFH1] is 15.9 µM; on NS3h 1b[con1] it was 19.7 µM.
In the case of `CC(=O)Nc1ccc(-c2nc3ccc(-c4nc5ccc(C)c(S(=O)(=O)O)c5s4)cc3s2)cc1`, the outcome at NS3h 2a[JFH1] and on NS3h 1b[con1] was inactive.
In the case of `Cc1ccc2nc(-c3ccc4nc(-c5ccc(NC(=O)c6cc(C(F)(F)F)ccc6F)cc5)sc4c3)sc2c1S(=O)(=O)O`, the IC50 at NS3h 2a[JFH1] is 6.7 µM; at NS3h 1b[con1] it was 6.4 µM.
The like results for `Cc1ccc2nc(-c3ccc(N)cc3)sc2c1S(=O)(=O)O` were, in that order, 21.1 µM and “inactive”.
The like results for `Cc1ccc2nc(-c3ccc4nc(-c5ccc(NC(=O)c6ccc(Cl)c(Cl)c6)cc5)sc4c3)sc2c1S(=O)(=O)O` were, in that order, 4.5 µM and 3.7 µM.
The like results for `CS(=O)(=O)c1ccc2nc(NC(=O)c3ccc4ncsc4c3)sc2c1` were, in that order, 21.3 µM and 26.8 µM.
In the case of `Cc1ccc2nc(-c3ccc4nc(-c5ccc(NC(=O)Nc6ccc(F)cc6)cc5)sc4c3)sc2c1S(=O)(=O)O`, the IC50 at NS3h 2a[JFH1] is 9.9 µM; on NS3h 1b[con1], 7.8 µM.
The like results for `Cc1ccc2nc(-c3ccc4nc(-c5ccc(NC(=O)c6ccc(C(F)(F)F)c(F)c6)cc5)sc4c3)sc2c1S(=O)(=O)O` were, in that order, 13 µM and 17.4 µM.
The like results for `Cc1ccc2nc(-c3ccc4nc(-c5ccc(NC(=O)c6cccc(Cl)c6)cc5)sc4c3)sc2c1S(=O)(=O)O` were, in that order, 3.9 µM and 2.6 µM.
On the same counts, the results for `Cc1ccc2nc(-c3ccc(NC(=O)c4ccc(NC(=O)Nc5ccccc5)cc4)cc3)sc2c1S(=O)(=O)O` are 32.1 µM and 43.8 µM.
For the compound `Cc1ccc2nc(-c3ccc4nc(-c5ccc(NC(=O)c6cc(F)cc(C(F)(F)F)c6)cc5)sc4c3)sc2c1S(=O)(=O)O`, the figures for the half-maximal inhibitory concentration (IC50) on NS3h 2a[JFH1] and at NS3h 1b[con1] were 15.8 µM and 28.4 µM, respectively.
On the same counts, the results for `Cc1ccc2c(sc(-c3ccc4c(c3)sc(-c3ccc5c(c3)sc(-c3ccc(N(C)C)cc3)[n+]5C)[n+]4C)[n+]2C)c1S(=O)(=O)O` (tested in a mixture with another compound) are 15.6 µM and 23.8 µM.
The like results for `Cc1ccc2nc(-c3ccc4nc(-c5ccc(NC(=O)c6ccc7nc(-c8ccc(N)cc8)sc7c6)cc5)sc4c3)sc2c1S(=O)(=O)O` were, in that order, 3.2 µM and 5.5 µM.
On the same counts, the results for `Cc1ccc2nc(-c3ccc(NC(=O)c4ccc(NC(=O)c5ccc(C(F)(F)F)cc5)cc4)cc3)sc2c1S(=O)(=O)O` are 14.7 µM and 10.4 µM.
In the case of `CCN(CC)c1ccc(-c2nc3ccc(-c4nc5ccc(C)c(S(=O)(=O)O)c5s4)cc3s2)cc1`, the results for the 50% inhibitory concentration (IC50) at NS3h 2a[JFH1] and at NS3h 1b[con1] were 4.7 µM and 4.6 µM, respectively.
Take `CCOc1ccc2nc(NC(=O)c3ccc4ncsc4c3)sc2c1`: the IC50 entry at NS3h 2a[JFH1] is “inactive”. In addition, the result on NS3h 1b[con1] was inactive.
Take `Cc1cc2sc(-c3ccc(N)cc3)nc2cc1S(=O)(=O)O`: the IC50 result at NS3h 2a[JFH1] is “inactive”. For the same compound, the result at NS3h 1b[con1] was inactive.
`Cc1ccc2nc(-c3ccc4nc(-c5ccc(NC(=O)c6ccncc6)cc5)sc4c3)sc2c1S(=O)(=O)O`: at NS3h 2a[JFH1], the IC50 result was “inactive”.

A word on the IC50: it is the concentration that gives 50% inhibition.
